For nine molecules, TGI results are on record in PubChem BioAssay (NCI).

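Tested at 5 concentrations; 48 h exposure; 96-well plates; endpoints linearly interpolated, else capped at highest concentration. TGI: concentration producing complete growth inhibition.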 Where only a bound is given, the exact number is not on record here.

Holding throughout (assay): DTP human tumour cell line panel, 48 h
In assay [1] the test system is ACHN renal.
Assay [2] deals with NCI-H460 lung.
The test system of assay [3] is SK-MEL-5 melanoma.
Assay [4] concerns SNB-19 CNS.
The test system of assay [5] is NCI-H226 lung.
The test system of assay [6] is SW-620 colon.
Assay [7] relates to SR leukemia.
Assay [8] concerns T-47D breast.
Assay [9] has as its system K-562 leukemia.
The subject of assay [10] is MDA-MB-231 breast.
The subject of assay [11] is OVCAR-5 ovarian.
Assay [12] deals with OVCAR-8 ovarian.
The test system of assay [13] is HCC-2998 colon.
The test system of assay [14] is HCT-116 colon.
Assay [15] deals with LOX IMVI melanoma.
Assay [16] has as its system SF-539 CNS.
The test system of assay [17] is RXF 393 renal.

As for `C=COC(=O)N1C2CCCC(Cl)(C(C)=O)C1CC2` (stereo not given), the TGI in [1], in assay [2], in [3], in assay [4], in assay [5] and in assay [6] was greater than 100 µM in each case. For the same molecule, the TGI in [7], in [8], in assay [9], in assay [10], in assay [11] and in assay [12] was greater than 100 µM throughout. Further, the TGI in assay [13], in assay [14] and in assay [15] was greater than 100 µM throughout.

On to `C(/C=C/Nc1ccc(-c2ccccc2)cc1)=Nc1ccc(-c2ccccc2)cc1`, for which the TGI in [1], in assay [2], in assay [3], in assay [4], in assay [5] and in assay [6] was greater than 100 µM each time. Moreover, the TGI in [7], in [8], in assay [16], in [9], in [10] and in assay [17] was greater than 100 µM throughout. Moreover, the TGI in [11], in assay [12], in [14] and in assay [15] was greater than 100 µM in each case.

With `O=C1/C(=C\c2cccc(Oc3ccccc3)c2)SC(c2ccccc2)N1c1cccc(Cl)c1` (stereo not given), the TGI in assay [1], in assay [2], in [3], in [4], in assay [5] and in assay [6] was greater than 100 µM each time. Moreover, the TGI in assay [8], in [9], in assay [10], in [17], in [11] and in assay [12] was greater than 100 µM throughout. In addition, the TGI in assay [13], in assay [14] and in [15] was greater than 100 µM throughout.

For the molecule `CC(C)(C)C(=O)CC(=O)C(F)(F)C(F)(F)C(F)(F)F.[Ag]`, the TGI (commonly the concentration giving total growth inhibition) came to 28.7 µM in assay [1]; 46.9 µM in assay [2]; 21.3 µM in assay [3]; 43.9 µM in [4]; 60.2 µM in assay [5]; 47 µM in [6]. Moreover, the TGI in [7] amounted to 22.4 µM; in assay [8] it was 55.2 µM; in [16] it was 57.6 µM; in [9] it was 65.8 µM; in assay [10] it was 30.1 µM; in [17], 32.4 µM. Also, the TGI in assay [11] was greater than 100 µM; in assay [12] it was 49.4 µM; in [14], 44.1 µM; in assay [15], 14.5 µM.

As to `COc1ccc(NC(=O)CC(=O)N2N=C(C)C(N=Nc3ccc(C(=O)O)cc3)C2=O)cc1` (stereo not given), the TGI in assay [1], in [2], in assay [3], in assay [4], in [6] and in assay [8] was greater than 100 µM throughout. Also, the TGI in [16], in assay [9], in assay [10], in assay [17], in assay [11] and in [12] was greater than 100 µM in each case. Also, the TGI in assay [13], in assay [14] and in assay [15] was greater than 100 µM each time.

As for `N#Cc1c2ccc([N+](=O)[O-])cc2c(=O)n2c1sc1ccccc12`, the TGI in assay [1] is greater than 100 µM; in assay [2] it was greater than 100 µM; in assay [3] it was greater than 100 µM; in [4], 36.9 µM; in [5], 47.5 µM; in [6], greater than 100 µM. For the same molecule, the TGI in assay [7] was 24.4 µM; in [8] it was 71.4 µM; in assay [9], 29.5 µM; in assay [10], 49.2 µM; in assay [12], greater than 100 µM; in assay [13] it was 38.7 µM. Further, the values for the TGI in assay [14] and in assay [15] were 38.8 µM and greater than 100 µM, respectively.

In the case of `CN(C)c1c(C2CC(O)C(CO)O2)c(=O)c1=O` (stereo not given), the TGI in assay [1], in assay [2], in assay [4], in [5], in assay [6] and in [7] was greater than 100 µM each time. Moreover, the TGI in [8], in assay [16], in [9], in assay [10], in [11] and in [12] was greater than 100 µM each time. For the same molecule, the TGI in assay [13], in [14] and in [15] was greater than 100 µM throughout.

In the case of `C=CCN(c1cc(OC)c2c(c1[N+](=O)[O-])C(C)(SC)C(=O)N2)S(C)(=O)=O` (stereo not given), the TGI in assay [1], in assay [2], in assay [3], in [4], in assay [5] and in [6] was greater than 100 µM each time. Further, the TGI in assay [7], in [8], in assay [16], in [9], in assay [10] and in [12] was greater than 100 µM each time. Also, the TGI in assay [13], in assay [14] and in assay [15] was greater than 100 µM throughout.

For `O=C(Nc1nccs1)NS(=O)(=O)n1cnc2ccccc21`, the TGI in assay [1], in assay [2], in assay [3], in assay [4], in assay [5] and in assay [6] was greater than 100 µM in each case. The TGI in assay [8], in [16], in assay [10], in assay [17], in [11] and in assay [12] was greater than 100 µM each time. For the same molecule, the TGI in [13] and in [14] was greater than 100 µM each time.
